Experimental findings from patent EP0848957A1, “Fas LIGAND SOLUBILIZATION INHIBITOR” (KANEBO LTD., priority 1995, dated 1997) are described below.

The term inhibition denotes the share of the control response that was lost under treatment. By IC50 is commonly meant the midpoint of a concentration-inhibition curve.

Data set [1] has as its system hFas L/BHK-21 (BHK-21 cells in which human Fas L cDNA was transfected). The data set is described as follows: Test for inhibition of Fas L solubilization (sFas L in culture supernatant by sandwich-ELISA). In kind it is cell-based. The settings on record: for inhibition at 5 µM: Homo sapiens, BHK-21, 24 h, incubated 24 hours at 37°C, read-out: aFas L secretion inhibition rate (%); for IC50: BHK-21, sFas L secretion inhibition at 5, 2.5, 1.25, 0.625 µM, probit method. As for the experimental part: hFas L/BHK-21 (BHK-21 cells in which human Fas L cDNA was transfected)(3.5 x 10^5) was suspended in 1ml of RPMI 1640 culture medium containing 10% fetal bovine serum, and in 24 wells culture plate (Falcon 3047, Becton Dickenson Co., Ltd.) each test sample adjusted with RPMI 1640 containing 10% fetal bovine serum at the final concentration 5, 2.5, 1.25, and 0.625 µM was incubated under 5% carbon dioxide atmosphere at 37°C for 24 hours, to obtain a culture supernatant.
The concentration of sFas L in the supernatant thus obtained was quantitatively analyzed by the sandwich-ELISA method as shown below.
The concentration of anti Fas L antibody (NOK3)(see preparation 17) was adjusted to 10µg/ml with 0.05M sodium carbonate-sodium hydrogen carbonate buffer solution (pH 9.6), and each 50µl thereof was poured in each well of a 96-wells microplate (Immunolon 2, Dinatech Co., Ltd.) and left it overnight at 4°C to make the solid phase. Each well was washed twice with 300 µl of a washing solution consisting of a physiological saline solution adjusted at pH 7.4 with a phosphate buffer solution, containing 0.05% of Tween 20 (polyoxyethylene sorbitan monolaurate)(abbreviated as T-PBS), and then to it was added 300µl of PBS (pH 7.4) containing bovine serum albumin (abbreviated as BSA, Wako Chemical Co., Ltd), and it was left for 2 hours at 37°C to remove the supernatant.
Then, the culture supernatant (50µl) containing a test sample were added to each well, and incubated for one hour at room temperature. After incubation, each well was washed twice with 300µl of T-PBS (pH7.4).
The concentration of anti Fas L antibody (NOK1) labeled with biotin (see preparation 18) was adjusted to 5µg/ml by diluting with PBS (pH 7.4) containing 1% BSA, and 50µl thereof was added to the solution prepared above. The solution was reacted for one hour at room temperature, and washed twice with 300µl of T-PBS (pH 7.4).
And then, streptoavidin-peroxidase (Amasham Lab.) was diluted 1000 times with PBS (pH 7.4) containing 1% of BSA, and 50µl thereof was added to it. The solution was incubated for 30 minutes at room temparature and was washed twice with 300µ of T-PBS (pH 7.4).
Further, 100µl of 0.15M citric acid-sodium phosphate buffer solution (pH 5.0) containing hydrogen peroxide and o-phenylenediamine (former concentration:0.015 w/v%, latter concentration:0.2mg/ml) was added to each well and incubated for 10 minutes at room temperature.
After incubation, 50µl of 2 N sulfuric acid was added to each well to quench the reaction, and the absorbance at 490 nm was measured by Softmax (Molecular Device Co., Ltd.)
On the other hand, by measuring the absorbance of the sFas L solution of which the concentration was known, as a sample instead of the culture supernatant, the calibration curve was detected based on 4-logistic parameter analysis, and based on it the concentration (X) of sFas L in the culture supernatant was calculated.
As a control, by using the concentration (A) of sFas L in the culture supernatant in case that the test sample was not added, based on the concentration (X) of sFas L in the culture supernatant in case that the sample was added, sFas secretion inhibition rate (%) at 5µM was calculated by using the following formula sFas L secretion inhibition rate (%) = (1-X/A) x 100 [formula]
For orientation: ELISA stands for enzyme-linked immunosorbent assay.

In data set [2] the test system is GVHD induced mouse. The data set is described as follows: Recovery test of GVHD induced mouse. Particulars: 2mg / mouse / day subcutaneously every day for 2 weeks. In kind it is in vivo, CBF1 mice. As for the experimental part:
CBF1 mice (F1 mice of BALB/c and C57BL/6) were injected with splenocytes (5x10^7) of C57BL/6 mouse, and a week later were again injected with splenocytes 5x10^7 to induce GVHD into a mouse.
A test sample was suspended in 0.5% CMC solution (test sample 10mg vs the CMC solution 1ml), 2mg of the test sample / mouse / day was subcutaneously administered every day for 2 weeks beginning from injection of splenocytes to the above GVHD induced mice, and this group was compared with the GVHD induced group in which any test sample was not administered (no drug administered group) and the GVHD non-induced group (non-treated group).
The body weight of mice (g) was measured every week a week later after the first injection of splenocytes, for 6 weeks, and the total IgE amount (ng/ml) was measured every week a week later after the first injection of splenocytes, for 9 weeks, and the degree of GVHD was evaluated by change of day.

Data set [3] has as its system GVHD induced mouse. In words: Prevention of the mortality of GVHD induced mouse. In kind it is in vivo, CBF1 mouse. The settings on record: splenocytes 1x10^8; after the death of all mice of the drug non-administered group; 3 weeks observation. As for the experimental part: GVHD was introduced into CBF1 mouse in the same manner as in Test example 2, except for the numbers of the injected splenocytes, 1x10^8, and the test sample administered group was compared with the drug non-administered group and the non-treated group.
The effect of test samples was evaluated by the mortality of mouse for 3 weeks after the first introduction of the splenocytes.

Data set [4] in a line: Toxicity after oral administration (mortality). The settings on record: 3,000mg/kg:body weight, orally administered. In kind it is in vivo. As for the experimental part: And a compound of the generic formula (I) or its pharmaceutically acceptable salt was low in toxicity. For example, when compound 4a ( 3,000mg/kg:body weight) was orally administered, the mortality was not found. Therefore, a compound of the generic formula (I) or its pharmaceutically acceptable salt is useful for preventing and treating the diseases in which apoptosis caused by binding the solubilized Fas L with Fas is considered to participate, for example, fulminant hepatitis, GVHD, AIDS, autoimmune diseases, etc.

Some results are limits rather than exact numbers.

Consider `CNC(=O)[C@H](Cc1ccc(OC)cc1)NC(=O)[C@@H](CC(=O)NO)CC(C)C` [Test sample A, [4-(N-hydroxyamino)-2(R)-isobutylsuccinyl]-L-O-methyltyrosine-N-methylamide], for which, in data set [1], the inhibition at 5 µM was 47%.

With `CNC(=O)[C@H](Cc1ccccc1)NC(=O)[C@H](CC(C)C)[C@H](CSc1ccccc1)C(=O)NO` [Test sample B, [4-(N-hydroxyamino)-2(R)-isobutyl-3(S)-phenylthiomethylsuccinyl]-L-phenylalanine-N-methylamide], in data set [1], half-maximal inhibition (IC50) required 2200 nM and the inhibition at 5 µM is greater than 70%.

For `CNC(=O)[C@H](Cc1ccc(OC)cc1)NC(=O)[C@H](CC(C)C)[C@H](C)C(=O)NO` [Test sample C, [4-(N-hydroxyamino)-2(R)-isobutyl-3(S)-methylsuccinyl]-L-O-methyltyrosine-N-methylamide], in data set [1], it took 1500 nM to reach half-maximal inhibition (IC50) and the inhibition at 5 µM is greater than 70%.

`CNC(=O)[C@H](Cc1ccccc1)NC(=O)[C@H](CC(C)C)[C@H](CSc1cccs1)C(=O)NO` [Test sample D, [4-(N-hydroxyamino)-2(R)-isobutyl-3(S)-(2-thienylthiomethyl)succinyl]-L-phenylalanine-N-methylamide]: in data set [1], the midpoint of inhibition, the IC50, lay at 1600 nM and the inhibition at 5 µM is greater than 70%.

As to `CNC(=O)[C@@H](NC(=O)[C@H](CC(C)C)[C@H](C)C(=O)NO)c1ccccc1` [Test sample E, [4-(N-hydroxyamino)-2(R)-isobutyl-3(S)-methylsuccinyl]-L-phenylglycine-N-methylamide], the inhibition at 5 µM in data set [1] was 29%. The “decrease of body weight caused by the induced GVHD” value in the data set with GVHD induced mouse [2] (body weight measured weekly for 6 weeks) is “clearly prohibited”. The “increase of total IgE amount caused by the induced GVHD” value in the data set on GVHD induced mouse [2] (total IgE measured weekly for 9 weeks) is given as “clearly prohibited”. The compound further showed a survival rate in the data set on GVHD induced mouse [3] of 90%. For the same compound, the mortality entry in data set [4] was “not found”.

On to `CNC(=O)[C@@H](NC(=O)[C@@H](CC(=O)NO)CC(C)C)c1ccc2ccccc2c1` [Test sample F, [4-(N-hydroxyamino)-2(R)-isobutylsuccinyl]-L-2-naphthylglycine-N-methylamide], for which the inhibition at 5 µM in data set [1] turned out to be 35%.

In the case of `NS(=O)(=O)c1ccc(CCNC(=O)[C@H](CC2CCCCC2)NC(=O)[C@H](CCCc2ccccc2)CC(=O)NO)cc1` [Test sample G, [4-(N-hydroxyamino)-2(R)-(3-phenylpropyl)succinyl]-L-3-cyclohexylalanine-N-[2-(4-sulfonylamidophenyl)ethyl]amide], in data set [1], the IC50 was determined as 1100 nM and the inhibition at 5 µM is greater than 70%.

As to `CNC(=O)[C@H](Cc1cccc2c1CCCC2)NC(=O)[C@H](CC(C)C)C(C)C(=O)NO` (stereo partly drawn) [Test sample H, [4-(N-hydroxyamino)-2(R)-isobutyl-3-methylsuccinyl]-L-3-(5,6,7,8-tetrahydro-1-naphthyl)alanine-N-methylamide], in data set [1], the inhibition at 5 µM worked out at 57%.

In the case of `CNC(=O)[C@H](Cc1cccc2ccccc12)NC(=O)[C@H](CC(C)C)C(C)C(=O)NO` (stereo partly drawn) [Test sample I, [4-(N-hydroxyamino)-2(R)-isobutyl-3-methylsuccinyl]-L-3-(1-naphthyl)alanine-N-methylamide], the inhibition at 5 µM in data set [1] was found to be 50%.
